{"source": "paper PMC5131364", "about": "“Pharmacologic modulation of RORγt translates to efficacy in preclinical and translational models of psoriasis and inflammatory arthritis” (Scientific Reports, 2016)", "key": {"PBMC from RA patients": {"test_system": "PBMC from RA patients", "test": "IL-17A/IL-22 production from PBMC of rheumatoid arthritis patients", "format": "cell-based, human", "conditions": "anti-CD3/anti-CD28 plus IL-1β and IL-23, 3 days", "text": "Frozen PBMCs of healthy and rheumatoid arthritis patients were obtained from SeraCare Life Sciences (Gaithersburg, MD). […] 3 days later, supernatants were collected and analyzed by MSD multi-spot assay or ELISA for IL-17A, IL-22 and IL-13 production."}, "RORα": {"biological_target": "T1, RORα (Homo sapiens, UniProt P35398)", "T1 construct": "NP_599022, aa 305–556; expressed in transfected cells; host or cells: HEK293T", "T1 sequence (P35398 272-523)": "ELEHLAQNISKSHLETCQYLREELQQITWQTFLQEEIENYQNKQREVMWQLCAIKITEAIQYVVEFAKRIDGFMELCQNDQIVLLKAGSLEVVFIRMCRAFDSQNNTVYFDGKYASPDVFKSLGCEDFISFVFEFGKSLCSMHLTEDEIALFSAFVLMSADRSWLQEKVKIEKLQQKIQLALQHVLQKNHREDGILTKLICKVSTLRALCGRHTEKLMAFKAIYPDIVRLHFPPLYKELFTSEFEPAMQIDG", "test": "1-hybrid reporter assay in HEK293T cells (GAL4-RORα)", "format": "cell-based", "conditions": "HEK-293T", "description": "The reporter assay was performed by transient co-transfection of HEK293T cells with pCMV-BD (Stratagene #211342) containing the GAL4 DNA-binding domain fused with full-length human RORγt (Genbank accession no. NP_001001523, aa 1–497), pFR-Luc reporter and pRL-CMV reporter (Promega #E2261) plus Carrier DNA (Clontech # 630440) using PEI solution (Sigma Aldrich cat# 40872-7) in a 96-well plate. […] Medium was removed and cells were lysed with Passive Lysis Buffer (Promega). Firefly luciferase buffer was then added and firefly luciferase luminescence was read on BMG LUMIstar OPTIMA luminescence plate reader. One second later, renilla luciferase buffer was then added and renilla luciferase luminescence was read to measure cell viability. For RORα and RORβ activity, similar assays were performed except cells were transfected with pCMV-BD-RORα (Genbank accession no. NP_599022, aa 305–556) or pCMV-BD-RORβ (Genbank accession no. NP_008845, aa 201–459)."}, "[1]": {"test_system": "human CD4+ T cells under Treg polarizing conditions", "test": "Human Treg in vitro differentiation", "format": "cell-based", "conditions": "6 days, 1 μM", "description": "Mouse CD4+ T cell in vitro Th1 differentiation\nTotal CD4+ T cells were isolated from splenocytes of C57/BL6 mice (Chareles River Labrotory) using a CD4+ T cell isolation kit (Miltenyl Biotec, Auburn, CA), following the manufacturer’s instructions. Cells were resuspended in culture medium (described in Method section of Th17 differentiation) and were added to 96‐well plates at 2x10^5 per well. Titrated JNJ‐54271074 was added to each well at final DMSO concentration of 0.2%. Cells were incubated for 1 hour, after which Th1 cell differentiation medium was added with final concentrations of 1 µg/ml anti‐CD3, 5 µg/mL anti‐CD28 (BD Pharmingen, San Diego, CA), 10 µg/ml anti‐IL4, 10 ng/mL IL‐12, (R&D Systems, Minneapolis, MN). Cells were cultured at 37 °C and 5% CO2 for 3 days. Supernatants were collected and the accumulated cytokines in culture were measured by ELISA kits (R&D Systems, Minneapolis, MN) following manufacturers' instructions.\nIL‐23 induced IL‐17A and IL‐22 production in mouse splenocytes splenocytes were isolated from C57/BL6 mice and resuspended in medium and cultured in 96‐well plates at […] per 100 µL per well. […] Supernatants were collected and the accumulated cytokines in culture were measured by ELISA according to the manufacturer’s instructions (IL‐17A kit from R&D systems, and IL‐22 from Biolegend San Diego). […]"}}, "data": [{"smiles": "COc1nc2ccc([C@@](O)(c3ccc(C)nc3C)c3cnnn3C)cc2c(Cl)c1Cc1ccc(C(F)(F)F)cc1", "note": "[JNJ-54271074]", "values": [{"measurement": "IC50", "setting": "PBMC from RA patients; Homo sapiens, PBMC, 72 h, read-out: IC50, IL-17A production from PBMC from RA subjects", "result": "0.005 ± 0.0012", "unit": "µM"}, {"measurement": "efficacy, inhibition of IL-17A production", "setting": "PBMC from RA patients; RA PBMC", "result": 88, "unit": "%"}, {"measurement": "efficacy, inhibition of IL-22 production", "setting": "PBMC from RA patients; RA PBMC", "result": 44, "unit": "%"}, {"measurement": "IC50", "setting": "RORα", "result": 4, "unit": "µM"}, {"measurement": "mRNA expression of FOXP3", "setting": "[1]", "result": "slightly increased"}, {"measurement": "percentage of FOXP3+ T cell", "setting": "[1]", "result": "no impact"}]}]}
